Data: US20100168085A1, “Dopamine and agonists and antagonists thereof for modulation of suppressive activity of CD4+CD25+ regulatory T cells” (YESA RESEARCH AND DEVELOPMENT CO. LTD. at the Weizmann …, priority 2003, published 2010)

Tests used:
[1] = tested on: suppressive activity of CD4+CD25+ regulatory T cells (Treg) on Teff proliferation; experiment: Inhibition assay (co-culturing of Teff with Treg), [3H]-thymidine incorporation; assay type: cell-based, mouse; conditions: for Inhibitory effect on Treg activity: freshly isolated (nonactivated) Treg; for Effect on Treg suppressive activity: activated Treg
Description: (xvi) Activation of CD4^+CD25^+ regulatory T cells. Purified regulatory T cells (Treg; 0.5×10^6 cells/mL) were activated in RPMI medium supplemented with L-glutamine (2 mM), 2-mercaptoethanol (5×10^−5 M), sodium pyruvate (1 mM), penicillin (100 IU/mL), streptomycin (100 μg/mL), nonessential amino acids (1 mL/100 mL), and autologous serum 2% (vol/vol) in the presence of mrIL-2 (5 ng/mL) and soluble anti-CD3 antibodies (1 ng/mL). Irradiated (2500 rad) splenocytes (1.5×10^6 cells/mL) were added to the culture. Cells were activated for 24 or 96 h. In some of the 96-h experiments, fresh dopamine was added to the culture every 24 h during activation.
(xvii) Inhibition assay (co-culturing of Teff with Treg). Naïve effector T cells (Teff; 50×10^3 cells/well) were co-cultured with decreasing numbers of activated Treg for 72 h in 96-well flat-bottomed plates in the presence of irradiated splenocytes (10^6/mL) supplemented with anti-CD3 antibodies. [^3H]-thymidine (1 μCi) was added for the last 16 h of culture. After the cells were harvested, their [^3H]-thymidine content was analyzed by the use of […].
In this experiment, we examined whether dopamine acts on Treg and alters their suppressive effect on Teff. Suppression of proliferation of Teff, assayed by [^3H]thymidine incorporation, was used as a measure of suppressive effect of Treg (Thornton and Shevach, 1998).
Shevach, 1998, 2000). Inhibition of Treg proliferation, assayed by [^3H]thymidine incorporation, can therefore be taken as a measure of the suppressive effect. We examined the ability of major neurotransmitters and neuropeptides (dopamine, norepinephrine, substance P, and serotonin) to alleviate the Treg-induced suppression of Teff in vitro. Each compound was tested at several concentrations. […] After incubating the activated Treg for 2 h with a neurotransmitter or a neuropeptide, we washed the cells and then co-cultured them with Teff.

[2] = tested on: adhesion of Treg and Teff to fibronectin
Description: (§1) One of the main features of T cells is their ability to migrate to tissues in need of rescue or repair [such as diseased or damaged CNS (Hickey, 1999; Flugel et al., 2001). […] We therefore incubated Treg with dopamine for 2 h and then examined their adhesion to chondroitin sulfate proteoglycans (CSPG), extracellular matrix proteins often associated with injured tissues (Jones et al., 2003).

[3] = tested on: CCR-4 mRNA in Treg; conditions: 2 h with dopamine
Description: (§2) (xx) Polymerase chain reaction (PCR). Total RNA was purified with the RNeasy Mini Kit (Qiagen, Germantown, Md.) and transcribed into cDNA using poly dT primers. For PCR the following primers were used: […]

[4] = tested on: Foxp3 expression in Treg; conditions: 2 h exposure, analysed after 30 min or 24 h
Description: as §2

[5] = tested on: adhesion of Treg and Teff to chondroitin sulfate proteoglycans (CSPG); experiment: T cell adhesion to CSPG; assay type: cell-based, mouse
Description: (xiii) T cell adhesion. Adhesion of activated CD4^+CD25^+ and CD4^+CD25^− T cells to CSPG was analyzed as previously described (23). Briefly, flat-bottomed microtiter (96-well) plates were pre-coated with CSPG (1 μg/well, 40 min, 37° C.). ^51Cr-labeled T cells were left untreated or were pre-incubated (30 min, 37° C.) with dopamine or the specified agonist or antagonist (10^−5M). The cells (10^5 cells in 100 μL of RPMI containing 0.1% BSA) were then added to the CSPG-coated wells, incubated (30 min, 37° C.), and washed. Adherent cells were lysed and the resulting supernatants were removed and counted in a γ-counter. Results were expressed as the mean percentage of the total population before adhesion of bound T cells from quadruplicate wells for each experimental group.
as §1
To verify that the effect of dopamine on adhesion of Treg is exerted through the ERK1/2 pathway, we incubated Treg with the ERK1/2 signaling pathway inhibitor PD98059 before carrying out the adhesion assay. […] Since interaction of T cells with CSPG is mediated in part by the CD44 receptor (Henke et al., 1996), and in light of the known dependence of CD44 expression on the ERK signaling pathway, it was conceivable that dopamine might affect the expression of CD44 in Treg.

[6] = tested on: IL-2 production by Treg and Teff; conditions: media conditioned 48 h, without mrIL-2
Description: (§3) (x) Enzyme-linked immunosorbent assay. Treg or Teff (0.5×10^6 cells/ml) were cultured for 48 h in the presence of anti-CD3 and anti-CD28. After 48 h the cells were centrifuged and their supernatants were collected and sampled. Concentrations of IL-2 in the samples were determined by the use of sandwich enzyme-linked immunosorbent assay (ELISA) kits (R&D Systems, Minneapolis, Minn.). For detection of secreted IL-10 cells were centrifuged every 24 h and replaced with a fresh medium. Supernatants obtained from cells after 24, 48 and 72 h in culture were subjected to ELISA kit (Diaclone Research, Fleming, France). The plates were developed using a 3,3′,5,5′-tetramethyl-benzidine liquid substrate system (Sigma, St. Louis, Mo.). The reaction was stopped by adding 1M H3PO4. Results for each experiment were calculated as the amount of secreted cytokine per 1 ml of sample, after subtraction of the background levels of the medium.
It should be noted that activation of both T cell populations was carried out in the absence of mrIL-2.

[7] = tested on: IL-10 production by Treg; conditions: 10^−5 M; 24 h, 48 h and 72 h
Description: as §3

[8] = tested on: TGF-β1 transcripts in Treg; conditions: after dopamine treatment
Description: as §2
Because the suppressive effect of Treg on Teff is partly due to transforming growth factor (TGF)-β1 (Nakamura et al., 2001), we measured whether exposure of Treg to dopamine affects the level of TGF-β1 expression.

[9] = Teff incubated 2 h with 10^−5 M

NCCc1ccc(O)c(O)c1 [dopamine, 3,4-dihydroxyphenethylamine]
Proliferation of Teff co-cultured with activated Treg incubated with compound versus Treg not incubated ([1]; 10^−5 M, 2 h, Treg activated 24 h with anti-CD3 and IL-2): more than twofold higher
Inhibitory effect on Treg activity ([1]; 10^−5 and 10^−7 M): reproduced
Effect on Treg suppressive activity ([1]; 10^−7 M, 2 h): significant effect
Effect on Treg suppressive activity ([1]; 10^−9 M, 2 h): no significant effect
Inhibitory effect on Treg activity ([1]; 10^−9 M): slight and not statistically significant
Direct effect on Teff proliferation [1, 9]: did not differ
Susceptibility of Teff to Treg suppression [1, 9]: did not alter the susceptibility of Teff to Treg suppression
Teff proliferation with treated versus untreated activated Treg ([1]; Treg activated 96 h, 10^−5 M for 2 h at end of activation): significantly higher
Extent of effect on Treg suppressive activity ([1]; any of the concentrations tested): only partial
Adhesion of Teff to fibronectin [2]: slight increase
Adhesion of Treg to fibronectin [2]: no effect
Expression of CCR-4 in Treg [3]: decreased
Foxp3 expression in Treg [4]: no significant change
Adhesion of Teff to CSPG [5]: slight, nonsignificant effect
Adhesion of Treg to CSPG ([5]; dopamine 10^−9-10^−5 M, concentration-dependent, agonist 10^−5 M): significantly decreased
IL-2 level secreted by Teff [6]: not affected
Production of IL-2 by Treg [6]: not detected
Amount of IL-10 in media of Treg [7]: significant decrease
Transcripts encoding TGF-β1 in Treg [8]: decreased
